# “Also recorded” adds a separate entry of the source. Like-named read-outs stand apart in the source and are kept apart here.
# How the values were obtained:
# [1] = tested on: wild-type cellular kinase in murine lymphocyte lysates; experiment: In vitro kinase reactions with radiolabeled nucleotide in murine lymphocyte lysates; assay type: biochemical; details: 100 μM radiolabeled nucleotide, 37° C., 10 min
# Method: For this it is preferably that no wild-type kinase, including ser/thr specific kinase (which carry out the bulk of cellular phosphorylation, as only 0.03% of all phosphoamino acids are tyrosine) (65), substantially accept the synthetic substrate. To establish that [γ-^32P]
# These assays were performed in a manner similar to the procedure set forth in Example 2, with the exception of the use of radiolabeled [γ-^32P] […] Proteins were separate by 12.5% SDS-PAGE. The gel was soaked in 10% acetic acid, 10% isopropanol for 1 h. after which it was dried in a gel dryer and exposed to Biomax MS film (Kodak # 111-1681) for 1 h.
# [2] = target: T1, GST-XD4 (Rous sarcoma virus subgroup A, UniProt P00524, DEL77-225); experiment: biochemical; assay type: biochemical; parameters: mutant of the v-Src catalytic domain, (the XD4 fragment) were made as glutathione S-transferase (GST) fusion proteins; made in house; host or cells: E. coli (DH5a), pGEX-KT
# Method: (§1) Kinetic constants were determined by analysis of Lineweaver-Burk plots of the rate data (64).
# [3] = target: T1, GST-XD4; experiment: Autophosphorylation with radiolabeled nucleotide (autoradiogram); assay type: biochemical; parameters: mutant of the v-Src catalytic domain, (the XD4 fragment) were made as glutathione S-transferase (GST) fusion proteins; made in house; host or cells: E. coli (DH5a), pGEX-KT; details: GST-XD4, FIG. 5C lane 3
# Text: (§2) It is even more significant that the new substrate, [γ-^32P] […] FIG. 5C is an autoradiogram showing [γ-^32P]
# [4] = target: T2, GST-XD4(V323A, I338A) (Rous sarcoma virus subgroup A, UniProt P00524, DEL77-225/I338A/V323A); experiment: as above; assay type: biochemical; details: FIG. 5C lane 4
# T2 construct: mutant of the v-Src catalytic domain, (the XD4 fragment) were made as glutathione S-transferase (GST) fusion proteins; made in house; host or cells: E. coli (DH5a), pGEX-KT
# Text: as §2
# [5] = tested on: protein tyrosine kinase in murine lymphocyte cell lysate (CF); experiment: Screening of ATP analogs as kinase substrates in murine lymphocyte lysate (anti-phosphotyrosine immunoblot); assay type: biochemical; details: 100 uM nucleotide triphosphate, 37° C., 5 min
# Method: Screening of Nucleotide Analogs: To identify compounds that would not be accepted as substrates by any existing cellular kinase (53), a panel of synthetic A*TP analogs were screened in a murine lymphocyte lysate (CF) rich in protein tyrosine kinase (13). The assays were performed using spleenocytes (8-30 week old male and female C57/B6 mice from the Princeton University Animal Facility) which were isolated and washed in RPMI-1640 medium containing 5% Bovine Calf Serum (BCS), 1% Hepes and DNAseI (1 μg/ml). Red cells were lysed at 4° C. by treatment with 17 mM tris ammonium chloride pH 7.2. The cells were hypotonically lysed on ice for 10 min. In 1 mM Hepes pH 7.4, 5 mM MgCl2, leupeptin (10 μg/ml), aprotinin (10 μg/ml) and 100 uM PMSF according to the method of Fukazawa et. al. (51). After vortexing and centrifuigation at 500 xg, the supernatant was collected. Cells were stored at 4° C. for 20 min. To attenuate the basal protein phosphorylation level, after which the buffer was adjusted to 20 mM Hepes pH 7.4, 10 mM MgCl2 and 1 mM NaF. Sodium vanadate (100 uM) was then added to inhibit the activity of phosphotyrosine phosphatases.
# Each nucleotide triphosphate was added to a final concentration of 100 uM to 5×10^6 cell equivalents and incubated at 37° C. for 5 min. after which 4X Laemmli gel loading buffer was added to the cell lysate to quench the reaction. Proteins were separated by 12.5% SDS-PAGE and transferred to Protran BA85 (Schleicher-Schuell). The blot was probed with the anti-phosphotyrosine monoclonal antibody 4G10 (Upstate Biotechnology) and the bound antibody was detected via enhanced chemiluminescence (cat. 34080, Pierce) following treatment with HRP- coupled goat-anti-mouse antibody (VWR cat. 7101332) according to the manufacturer's instructions.
# The cell lysate used includes the protein tyrosine kinase Src, Fyn, Lck, Lyn, Yes, Fgr, Hck, Zap, Syk, Btk, Blk, and other protein tyrosine kinase present in B and T lymphocytes, macrophages, and follicular dendritic cells (13). Molecular size standards (in kilodaltons) are indicated.
# [6] = target: T2, GST-XD4(V323A, I338A); assay type: biochemical
# Method: as §1
# [7] = tested on: GST-XD4(V323A, I338A); details: 100 μM analog, 10 μM [γ-32P] ATP
# [8] = target: T1, GST-XD4; details: read-out: KM for protein substrate RR-Src at saturated nucleotide
# [9] = target: T3, Cdc28-as1 · MBP-Clb2 (Saccharomyces cerevisiae, UniProt P00546, F88G); assay type: biochemical
# T3 construct: made in house; host or cells: Sf9 insect cells, baculovirus, co-infected with Cak1-HA3 (Cdc28-as1-His6); bacteria (MBP-Clb2)
# [10] = tested on: B cell receptor (BCR) mediated phosphorylation cascade in murine B cells; experiment: Murine B Cell Assay (phosphotyrosine blot after anti-IgM stimulation); assay type: cell-based; parameters: dose or concentration left out as unconfirmed; details: 30 minutes, anti-IgM cross linked murine B cells
# Method: Murine B Cell Assay: Splenic lymphocytes were isolated from 6-20 week old Balb/c or C57/B6 mice. The cells were washed out of the spleen into RPMI media containing 1 mg/mL DNase in and the red blood cells were lysed in 17 mM tris-ammonium chloride, pH 7.2, Approximately 4×10^6 cells were incubated at 37° C. for 30 minutes with […] of 3 g or 2 in 1.1% DMSO. B cell stimulation was initiated by the addition of 2 mg of goat anti-mouse IgM (Jackson Immuno Research, cat# 115-005-075) and subsequent incubation for 5 minutes at 37(C. The cells were isolated by centrifugation (13,000 rpm, 2 min) and lysed (lysis buffer: 1% Triton X-100, 50 mM tris pH 7.4, 2 mM EDTA, 150 mM NaCl, […] PMSF, 2 mM sodium orthovanadate, 10 mg/mL leupeptin, 10 mg/mL apoprotin). The cellular debris was then pelleted at 13,000 rpm for 15 min. Cellular proteins were separated by 10% polyacrylamide gel electrophoresis and transferred to a nitrocellulose membrane by Western blotting. Phosphotyrosine containing proteins were visualized by immunoblotting with anti-phosphotyrosine antibody (Upstate Biotechnology, Inc.).
# [11] = tested on: WT v-Src transformed NIH3T3 cells; experiment: Inhibition of v-Src in NIH3T3 fibroblasts (phosphotyrosine blot); assay type: cell-based, murine; details: 100 mM 3g, 12 hours
# Method: Tyrosine phosphorylated proteins were visualized as in FIG. 20A.
# Retroviral Infection of NIH 3T3 Fibroblasts: Genes encoding WT and I338G v-Src were transfected into a packaging cell line and NIH 3T3 fibroblasts were retrovirally infected using the pBabe retroviral vector and a puromycin ([…]) selectable marker as described (Shah, K., Liu, Y., Shokat, K. M., in preparation). WT and I338G v-Src transformed cells were cultured in DMEM/10% BCS containing […] puromycin).
# After 12 hours, the cells were washed with PBS and lysed (lysis buffer: 1% Triton X-100, 50 mM tris pH 7.4, 2 mM EDTA, 150 mM NaCl, […], 2 mM sodium orthovanadate, 10 mg/mL leupeptin, 10 mg/mL apoprotin). The lysate was clarified by centrifugation at 13,000 rpm for 15 min. Lysate protein concentrations were normalized and equal volumes of the lysate were resolved electrophoretically and analyzed for phosphotyrosine content as described above.
# [12] = target: T4, I338G v-Src (Rous sarcoma virus subgroup A, UniProt P00524, DEL77-225/I338G); experiment: biochemical; assay type: biochemical
# T4 construct: screened against the catalytic domain of the target kinase, I338G v-Src; made in house; host or cells: E. coli DH5a, pGEX-KT
# [13] = target: T5, PKA (Homo sapiens, UniProt P17612); experiment: In Vitro Kinase Inhibition Assay; assay type: biochemical; details: at concentrations up to 300 mM
# T5 construct: purchased Pierce
# Text: PKA was purchased (Pierce) and used without further purification.
# [14] = target: T6, PKCd (Homo sapiens, UniProt Q05655); experiment: In Vitro Kinase Inhibition Assay; assay type: biochemical; details: at concentrations up to 300 mM
# T6 construct: 6-His; made in house; host or cells: Bac-to-Bac baculovirus expression system (pFastBac B vector)
# [15] = tested on: I338G v-Src transformed NIH3T3 fibroblasts; experiment: Microscopy of cell morphology and polymerized actin; assay type: cell-based, murine; details: 100 mM 3g, 48 hours
# Method: FIG. 21A show non-transformed NIH3T3 cells.
# Microscopy: Non-transformed, WT v-Src transformed, and 1338G v-Src transformed NIH3T3 fibroblasts were grown in DMEM/10% BCS on tissue culture treated slides. V-Src expressing cells were treated with either 1.1% DMSO or […] 3g in 1.1% DMSO. After 48 hours cells were photographed at 400(magnification on an Nikon TMS light microscope. Immediately following light microscopy, the cells were fixed for 20 min in 3.7% formaldehyde/PBS and permeabilized for 60 sec in 0.2% Triton X-100(/PBS. Permeabilized cells were incubated with 200 ng/mL phalloidin-FITC/PBS for 20 min. Slides were rinsed with PBS and polymerized actin was visualized by fluorescence microscopy at 600( magnification on a Zeiss fluorescence microscope.
# [16] = target: wild-type Fyn (Homo sapiens, UniProt P06241); experiment: Peptide phosphorylation assay, screening of inhibitors orthogonal to wild-type kinases; assay type: biochemical; details: read-out: IC50 for inhibition of wild-type Fyn
# Text: Screening of inhibitors which are orthogonal to wild-type kinases: To identify compounds that would not inhibit any existing cellular kinases, the panel of synthetic pyrazolo pyrimidine analogs (1-6) (FIG. 10) were screened against two closely related purified protein tyrosine kinases, v-Src and Fyn, in a peptide phosphorylation assay using [γ-^32P]
# [17] = GST-XD4, 1 mM RR-Src, 37° C., pH 8.0
# T3 sequence (P00546 whole entry F88G): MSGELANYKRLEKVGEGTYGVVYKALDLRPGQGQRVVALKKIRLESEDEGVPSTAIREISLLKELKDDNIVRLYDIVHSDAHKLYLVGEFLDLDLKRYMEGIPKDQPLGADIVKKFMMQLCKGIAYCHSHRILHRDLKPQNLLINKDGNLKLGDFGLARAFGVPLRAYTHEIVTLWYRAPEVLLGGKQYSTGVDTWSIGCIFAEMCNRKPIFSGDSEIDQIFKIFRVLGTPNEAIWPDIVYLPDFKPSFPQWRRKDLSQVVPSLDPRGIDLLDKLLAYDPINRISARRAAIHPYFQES
# T3 sequence (P24869 whole entry, further chain): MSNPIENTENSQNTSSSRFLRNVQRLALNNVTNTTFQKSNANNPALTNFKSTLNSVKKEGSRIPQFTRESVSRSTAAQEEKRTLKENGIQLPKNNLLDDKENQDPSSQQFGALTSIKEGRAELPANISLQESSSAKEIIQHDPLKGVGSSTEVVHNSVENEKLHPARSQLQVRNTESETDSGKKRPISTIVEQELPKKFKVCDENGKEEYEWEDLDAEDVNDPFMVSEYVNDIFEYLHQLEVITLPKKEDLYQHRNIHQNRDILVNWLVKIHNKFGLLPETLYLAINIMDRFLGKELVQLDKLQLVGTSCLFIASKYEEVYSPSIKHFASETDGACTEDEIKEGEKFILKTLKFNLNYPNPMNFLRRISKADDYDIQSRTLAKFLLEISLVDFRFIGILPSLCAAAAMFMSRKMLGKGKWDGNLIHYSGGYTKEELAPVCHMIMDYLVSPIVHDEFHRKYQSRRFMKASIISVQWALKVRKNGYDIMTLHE
# T6 sequence (Q05655 whole entry, species assumed): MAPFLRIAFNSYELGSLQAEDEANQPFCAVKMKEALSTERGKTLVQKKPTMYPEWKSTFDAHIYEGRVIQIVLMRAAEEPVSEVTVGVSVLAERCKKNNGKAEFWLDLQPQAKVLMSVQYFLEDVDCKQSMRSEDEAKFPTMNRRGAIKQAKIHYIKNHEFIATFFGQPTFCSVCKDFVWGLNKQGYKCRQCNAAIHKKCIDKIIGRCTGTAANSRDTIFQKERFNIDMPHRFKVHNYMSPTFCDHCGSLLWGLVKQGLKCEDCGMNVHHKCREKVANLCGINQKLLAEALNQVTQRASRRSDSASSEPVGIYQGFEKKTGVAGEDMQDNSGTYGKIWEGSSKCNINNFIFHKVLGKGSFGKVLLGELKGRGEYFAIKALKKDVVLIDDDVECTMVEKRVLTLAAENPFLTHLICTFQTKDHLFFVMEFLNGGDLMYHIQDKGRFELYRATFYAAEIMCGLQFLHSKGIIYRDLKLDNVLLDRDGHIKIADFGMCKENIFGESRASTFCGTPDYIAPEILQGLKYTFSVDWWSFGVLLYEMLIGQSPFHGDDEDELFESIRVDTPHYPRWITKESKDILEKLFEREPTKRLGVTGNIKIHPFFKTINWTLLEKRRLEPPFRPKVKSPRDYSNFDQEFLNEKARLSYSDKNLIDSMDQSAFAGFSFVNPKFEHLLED
# Sequence of wild-type Fyn (P06241 1-534 isoform P06241-2, species assumed): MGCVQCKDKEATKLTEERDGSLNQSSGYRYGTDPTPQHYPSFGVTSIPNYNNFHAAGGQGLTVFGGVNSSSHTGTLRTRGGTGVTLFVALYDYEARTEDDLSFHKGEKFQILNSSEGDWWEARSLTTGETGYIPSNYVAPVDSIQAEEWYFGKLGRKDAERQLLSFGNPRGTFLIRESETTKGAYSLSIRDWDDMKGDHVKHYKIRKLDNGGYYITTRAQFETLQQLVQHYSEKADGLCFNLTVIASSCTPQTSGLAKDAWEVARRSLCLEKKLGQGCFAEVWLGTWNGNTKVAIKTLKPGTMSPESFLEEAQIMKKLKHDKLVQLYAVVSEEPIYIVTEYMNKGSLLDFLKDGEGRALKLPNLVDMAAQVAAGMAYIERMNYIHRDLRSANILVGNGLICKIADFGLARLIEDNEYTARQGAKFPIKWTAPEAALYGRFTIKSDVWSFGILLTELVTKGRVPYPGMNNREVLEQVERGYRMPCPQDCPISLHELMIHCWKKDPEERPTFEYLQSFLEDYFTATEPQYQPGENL
smiles,measurement,setting,value
"O=P(O)(O)OP(=O)(O)OP(=O)(O)OC[C@H]1O[C@@H](n2cnc3c(NC4CCCC4)ncnc32)[C@H](O)[C@@H]1O [ATP analog 8, N^6(cyclopentyl)ATP]",radiolabeled phosphoproteins in cell lysate,[1],no radiolabeled phosphoproteins in the cell lysate
same,Ki,[2],2000 µM
same,phosphorylation of RR-Src peptide with the nucleotide as phosphate donor,[2]; wild-type GST-XD4,did not substantially phosphorylate the RR-Src peptiide
same,use as phosphodonor for autophosphorylation,[3],apparent complete inability of GST-XD4 to use this analog as a phosphodonor for autophosphorylation
same,use as phosphodonor for autophosphorylation,[4],efficiently autophosphorylated
same,ability to serve as cellular protein tyrosine kinase substrate (level of protein tyrosine phosphorylation),[5],slightly lower level of phosphorylation with wild-type kinase
same,phosphorylation of RR-Src peptide with the nucleotide as phosphate donor,[6],displayed Michaelis-Menten kinetics
same,"inhibition of GST-XD4(V323A, I338A) catalyzed RR-Src phosphorylation",[7],"almost as well as the wild-type kinase, GST-XD4, is inhibited by its natural substrate ATP"
"Nc1ncnc2c1ncn2[C@@H]1O[C@H](COP(=O)(O)OP(=O)(O)OP(=O)(O)O)[C@@H](O)[C@H]1O [ATP, adenosine triphosphate]",Km,[8],2600 ± 900 µM
same,Km,[2]; [17],12 ± 3 µM
same,kcat,[2]; [17],0.033 ± 0.0083 s⁻¹
same,reduction in binding affinity for ATP relative to wild-type Cdc28,[9],10 fold
same,reduction in maximum ATP turnover rate relative to wild-type Cdc28,[9],6 fold
"CC(C)(C)c1ccc(C(=O)Nc2ncnc3c2c(-c2ccccc2)nn3C(C)(C)C)cc1 [Compound 3g, 4-(p-tert-butyl)benzamido-1-tert-butyl-3-phenylpyrazolo[3,4-d]pyrimidine]",phosphotyrosine pattern of B cell stimulation,[10],no effect on the phosphotyrosine pattern of B cell stimulation
same,tyrosine phosphorylation,[11],but not WT v-Src transformed NIH3T3 fibroblasts; also recorded: causes no loss of tyrosine phosphorylation
same,mode of inhibition of I338G v-Src,[12]; Lineweaver-Burk analysis,competitively with respect to ATP
same,Ki,"[12]; Lineweaver-Burk analysis at various ATP concentrations, read-out: inhibitory constant (Ki), I338G v-Src",~0.4 µM
same,inhibition of PKA,[13],not detectably inhibited
same,inhibition of PKCd,[14],not detectably inhibited
same,cell morphology and polymerized actin,[15],appeared flat and did not exhibit growth characteristics of transformed cells; also recorded: have defined polymerized actin strings
"CC(C)(C)n1nc(-c2ccccc2)c2c(NC(=O)c3ccccc3)ncnc21 [Compound 3e, 4-benzamido-1-tert-butyl-3-phenylpyrazolo[3,4-d]pyrimidine]",IC50,[16],> 400 µM

# From US20030073218A1, “High affinity inhibitors for target validation and uses thereof” (Princeton University, priority 1999, published 2003)
